Data taken from patent publication US20060165840A1, “Fish feed” (Norsk Hydro ASA, priority 2002, published 2006).
Entries after “also recorded” stand apart in the source; their conditions may differ.

Assay: Oxidative stability of salmon oil, induction period in weight increase experiment
Conditions: salmon oil from fresh raw materials, antioxidant added to oil, versus control oil without additions
Protocol: The oil stability was measured as the induction period (in days) in weight increase experiment. Oil A is salmon oil with 200 ppm d-α-tocopherol. Oil E is the control without additions.
To a sample of fresh fish oil prepared by gentle processing of fresh salmon filleting by-products (viscera, heads, framebones), we added 200 ppm vitamin E consisting of 89-99% d-α-tocopherol and 1-11% (β+γ+δ)-tocopherols (according to product specification), and a mixture of other/synergistic.
To another sample of the oil, we added 200 ppm vitamin E consisting of 14% d-α-tocopherol, 1% d-β-tocopherol, 62% d-γ-tocopherol and 23% d-δ-tocopherol, and a mixture of other/synergistic antioxidants similar to what was given to the first sample.
The oxidative stability of the three oils were tested by subjecting 3.0 g samples in 6.0 cm glass petri dishes to a temperature of 35° C. while exposed to air. The oxygen uptake caused by oxidation was recorded as a rapid weight increase of the samples when their antioxidative resistance was broken down, after an initial induction time (IP).

Cc1c(C)c2c(c(C)c1O)CC[C@@](C)(CCC[C@H](C)CCC[C@H](C)CCCC(C)C)O2 [d-α-tocopherol]
oil stability measured as induction period: weakly prooxidant effects; also recorded: did not increase stability, but gave instead a small prooxidant effect
